Values of other authors in patent US20070254835A1, “COMPOSITION AND METHOD FOR TREATING NEUROLOGICAL DISORDERS” (priority 2003, published 2007).

Columns and labels:
[1] = system: HDAC; conditions: in words only; literature
[2] = system: mammalian HDAC; conditions: Yoshida et al. 1990
[3] = system: DNA methyltransferase; conditions: after incorporation at a site of methylation
[4] = sterile powder formulation stored at 2-8° C.
[5] = system: MT-3; conditions: brain tissue

For `O=C(/C=C/c1cccc(C(=O)NO)c1)NO` [CBHA, m-carboxy-cinnamic acid bishydroxamic acid], the “concentration at which HDAC is inhibited” value [1] is given as “micromolar concentration or lower”.

In the case of `CC(/C=C/C(=O)NO)=C\[C@@H](C)C(=O)c1ccc(N(C)C)cc1` [TSA, trichostatin A], the “inhibition of mammalian HDAC” value [2] is given as “potent inhibitor”.

For `Nc1ncn([C@H]2C[C@H](O)[C@@H](CO)O2)c(=O)n1` [decitabine, 5-aza-2′-deoxycytidine], the “effect on DNA methyltransferase” value [3] is given as “irreversible inactivation”, the “half life in vivo” value is given as “short half life” and the tissue distribution (in vivo) is given as “excellent tissue distribution”. For the same molecule, the “time the drug is kept stable” value [4] was “at least 2 years”.

In the case of depudecin, the “concentration at which HDAC is inhibited” value [1] is listed as “micromolar concentrations”.

For `Nc1ncn([C@@H]2O[C@H](CO)[C@@H](O)[C@H]2O)c(=O)n1` [5-azacytidine], the “MT-3 expression after treatment” value [5] is given as “re-expression of MT-3”.

In the case of `C/C=C1\NC(=O)[C@H]2CSSCC/C=C/[C@H](CC(=O)N[C@H](C(C)C)C(=O)N2)OC(=O)[C@H](C(C)C)NC1=O` [Depsipeptide, depsipeptide], the “concentration at which HDAC is inhibited” value [1] is listed as “micromolar concentrations”.
